{"source": "patent US8426394B2", "about": "“Progesterone antagonists such as CDB-4124 in the treatment of endometriosis, uterine fibroids, dysmenorrhea, breast cancer, etc” (Repros Therapeutics Inc., priority 2008, dated 2013)", "key": {"[1]": {"system": "progesterone-induced endometrial proliferation in the rabbit uterus", "experiment": "anti-McGinty and anti-Clauberg assays (biological activity in the rabbit uterus)", "assay_type": "in vivo", "details": "in comparison to RU 486 and CDB-2914", "excerpt": "Also given in Table 1 are the relative biological activities of the same compounds in the rabbit uterus by the anti-McGinty and anti-Clauberg assays. Compound CDB-2914 (listed at the end of the Table) was used as the control or reference compound (rabbit Biological Activity=1.00) for these experiments because results of experiments using CDB-2914 have been published before (Hild-Petito et al., 1996; Passaro et al., 1997; Reel et al., 1998; Lamer et al., 2000). For the anti-McGinty test, immature female rabbits received a subcutaneous injection of 5 μg estradiol in 10% ethanol/sesame oil daily for 6 consecutive days. On day 7, animals underwent sterile abdominal surgery to ligate a 3-4 cm segment of both uterine horns. The test compound in appropriate solvent was injected intraluminally into the ligated segment of one uterine horn and vehicle alone into the other. […] Five micron sections stained with hematoxylin and cosin were evaluated microscopically for the degree of endometrial glandular proliferation. The percent inhibition of endometrial proliferation for each rabbit was calculated and the mean of the group of five animals recorded. […] Five micron sections stained with hematoxylin and eosin were evaluated microscopically for the degree of endometrial glandular proliferation. […]"}, "[2]": {"experiment": "Serum corticosterone in rats", "details": "progesterone, CDB-4124 and RU-486 groups compared"}, "[3]": {"target": "T1, glucocorticoid receptor (rbGR) (Oryctolagus cuniculus, UniProt P59667)", "T1 construct": "cytosol containing PR or GR were prepared in TEGMD buffer; from tissue; host or cells: thymus of estradiol-primed immature rabbits (cytosol)", "T1 sequence (P59667 1-772)": "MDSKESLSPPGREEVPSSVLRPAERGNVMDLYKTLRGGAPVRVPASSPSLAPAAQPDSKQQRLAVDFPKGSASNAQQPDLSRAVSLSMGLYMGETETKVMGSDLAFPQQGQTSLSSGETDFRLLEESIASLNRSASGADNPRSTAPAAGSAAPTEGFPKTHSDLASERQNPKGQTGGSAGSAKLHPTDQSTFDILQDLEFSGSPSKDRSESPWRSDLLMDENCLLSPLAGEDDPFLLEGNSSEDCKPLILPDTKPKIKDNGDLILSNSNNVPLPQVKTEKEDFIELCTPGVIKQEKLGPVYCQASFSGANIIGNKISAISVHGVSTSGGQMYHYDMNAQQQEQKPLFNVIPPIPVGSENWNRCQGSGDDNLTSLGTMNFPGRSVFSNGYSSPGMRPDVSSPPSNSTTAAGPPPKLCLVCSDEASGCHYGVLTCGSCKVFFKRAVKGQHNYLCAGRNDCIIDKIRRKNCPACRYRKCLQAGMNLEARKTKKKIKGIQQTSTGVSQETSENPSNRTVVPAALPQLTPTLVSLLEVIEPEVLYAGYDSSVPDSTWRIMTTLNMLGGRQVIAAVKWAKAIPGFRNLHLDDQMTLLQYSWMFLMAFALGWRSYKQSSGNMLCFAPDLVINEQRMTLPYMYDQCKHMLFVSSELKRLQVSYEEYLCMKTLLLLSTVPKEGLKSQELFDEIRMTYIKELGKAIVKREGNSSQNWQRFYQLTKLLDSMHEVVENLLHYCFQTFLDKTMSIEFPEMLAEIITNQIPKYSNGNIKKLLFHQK", "experiment": "Glucocorticoid receptor binding / anti-glucocorticoid receptor activity", "design": "species or system rabbit", "method": "Certain antiprogestins were tested in receptor-binding assays for their ability to bind rabbit progesterone receptor (rbPR) and glucocorticoid receptor (rbGR). […] For PR binding, the cytosol was incubated with 6 nM 1,2-[^3H]progesterone (50.0 Ci/mmole) and competitors were added at concentrations from 2 to 100 nM. For binding to GR, the cytosol was incubated with 6 nM 6,7-[^3H]-dexamethasone (40 Ci/mmol) and test compounds were added at concentrations from 20 to 100 nM. After overnight incubation at 4 C, bound and unbound [^3H] steroids were separated by addition of dextran-coated charcoal and centrifugation at 2100×g for 15 min at 4 C. Supernatants containing the [3H]-steroid receptor complexes were decanted into vials containing 4 ml Optifluor (Packard Instrument Co.), vortexed, equilibrated in a liquid scintillation counter for 30 minutes and then counted for 2 minutes. […] The standards for the PR and GR assays were unlabeled progesterone and dexamethasone, respectively."}}}
{"smiles": "COCC(=O)[C@@]1(OC(C)=O)CC[C@H]2[C@@H]3CCC4=CC(=O)CCC4=C3[C@@H](c3ccc(N(C)C)cc3)C[C@@]21C", "note": "[CDB-4124, 21-methoxy-17α-acetoxy-11β-(4 N,N-dimethylaminophenyl)-19-norpregna-4,9-diene-3,20-dione]", "values": [{"measurement": "antiprogestin activity in the rabbit uterus", "setting": "[1]", "value": "strong"}, {"measurement": "differences in serum corticosterone between treatment groups", "setting": "[2]", "value": "No differences"}, {"measurement": "anti-glucocorticoid receptor activity / glucocorticoid receptor binding", "setting": "[3]", "value": "minimal"}]}
